≈ marks a conversion by molar mass, not a printed value. Some results are limits rather than exact numbers.

Drawing on ChEMBL document CHEMBL1255266, “Mechanisms of resistance to daptomycin in Enterococcus faecium” (2008), this text covers MIC for 2 molecules.

In test [1] the test system is Enterococcus faecium. The test is described as follows: Antimicrobial activity against Enterococcus faecium isolate 8 from right abdominal wound of patient by Etest.
In test [2] the test system is Enterococcus faecium. As to the kind of experiment: Antimicrobial activity against Enterococcus faecium ATCC 35667 by Etest. The test is classed as functional.
Test [3] concerns Enterococcus faecium. The test is described as follows: Antimicrobial activity against Enterococcus faecium isolate 6 from thigh wound of patient by Etest. The test is classed as functional. The following applies: isolate 6, Thigh muscle.
The subject of test [4] is Enterococcus faecium. The test is described as follows: Antimicrobial activity against Enterococcus faecium isolate 5 from patient blood by Etest. The test is classed as functional.
For test [5], the system named is Enterococcus faecium. As to the kind of experiment: Antimicrobial activity against Enterococcus faecium isolate 1 from right groin wound of patient by Etest. The test is classed as functional.
For test [6], the system named is Enterococcus faecium. As to the kind of experiment: Antimicrobial activity against Enterococcus faecium isolate 3 from abdominal wound of patient by Etest. It is filed as functional.
In test [7] the test system is Enterococcus faecium. The test is described as follows: Antimicrobial activity against Enterococcus faecium isolate 2 from skin lesion of patient by Etest. The test is classed as functional.
In test [8] the test system is Enterococcus faecium. The test is described as follows: Antimicrobial activity against Enterococcus faecium isolate 4 from lower extremity wound of patient by Etest. It is filed as functional.
The subject of test [9] is Staphylococcus aureus. As to the kind of experiment: microbe, parasite or virus in culture. The following applies: ATCC 29213.
Description: Antimicrobial activity against Staphylococcus aureus ATCC 29213 by Etest
Test [10] has as its system Enterococcus faecium. The test is described as follows: Antimicrobial activity against Enterococcus faecium isolate 7 from abdominal wound of patient by Etest.

On to `CCCCCCCCCC(=O)N[C@@H](Cc1c[nH]c2ccccc12)C(=O)N[C@H](CC(N)=O)C(=O)N[C@@H](CC(=O)O)C(=O)N[C@@H]1C(=O)NCC(=O)N[C@@H](CCCN)C(=O)N[C@@H](CC(=O)O)C(=O)N[C@H](C)C(=O)N[C@@H](CC(=O)O)C(=O)NCC(=O)N[C@H](CO)C(=O)N[C@@H]([C@H](C)CC(=O)O)C(=O)N[C@@H](CC(=O)c2ccccc2N)C(=O)O[C@@H]1C`, for which the MIC was found to be 16 µg/mL (≈ 9.87 µM) in [1]; 1 µg/mL (≈ 0.617 µM) in test [2]; 16 µg/mL (≈ 9.87 µM) in test [3]; 8 µg/mL (≈ 4.94 µM) in test [4]; 4 µg/mL (≈ 2.47 µM) in [5]; 16 µg/mL (≈ 9.87 µM) in [6]. Moreover, the MIC is 4 µg/mL (≈ 2.47 µM) in test [7], 16 µg/mL (≈ 9.87 µM) in test [8], 0.25 µg/mL (≈ 0.154 µM) in test [9] and above 16 µg/mL in test [10].
Take `CN[C@H](CC(C)C)C(=O)N[C@H]1C(=O)N[C@@H](CC(N)=O)C(=O)N[C@H]2C(=O)N[C@H]3C(=O)N[C@H](C(=O)N[C@H](C(=O)O)c4cc(O)cc(O)c4-c4cc3ccc4O)[C@H](O)c3ccc(c(Cl)c3)Oc3cc2cc(c3O[C@@H]2O[C@H](CO)[C@@H](O)[C@H](O)[C@H]2O[C@H]2C[C@](C)(N)[C@H](O)[C@H](C)O2)Oc2ccc(cc2Cl)[C@H]1O` [VANCOMYCIN]: the MIC is above 16 µg/mL in test [1]; above 16 µg/mL in test [3]; above 16 µg/mL in test [4]; below 2 µg/mL in test [5]; below 2 µg/mL in [6]; below 2 µg/mL in test [7]. Besides, the MIC in test [8] and in test [10] was above 16 µg/mL throughout.
